# Where two headings read alike, the source gives them in different places.
# Tests used:
# CRBN-DDB1 = CRBN-DDB1 (Homo sapiens, UniProt Q96SW2); assay: HTRF binding of compounds to CRBN
# Experimental: Compound activity was monitored in a Homogenous Time-Resolved Fluorescence (HTRF) assay using 1-[5-({2-[2-(2-{[2-(2,6-dioxopiperidin-3-yl)-1,3-dioxo-2,3-dihydro-1H-isoindol-4-yl]oxy}acetamido)ethoxy]ethyl}carbamoyl)pentyl]-3,3-dimethyl-2-[(1E,3E)-5-[(2E)-1,3,3-trimethyl-5-sulfo-2,3-dihydro-1H-indol-2-ylidene]penta-1,3-dien-1-yl]-3H-indol-1-ium-5-sulfonate as a fluorescent probe. […] Compounds were stored in dry, ambient temperatures at 10 mM. A 10-point, 1:3 dilution series was prepared from 10 mM stock concentrations in Echo-compatible LDV plates. 10 nL of each compound dilution series was dispensed into assays wells using an Echo 650 (Labcyte inc. USA). […] The assay was then allowed to incubate for 30 min at ambient temperature after transferring compound. […] Analysis and IC50 values were derived using KNIME analytics (KNIME Zurich) transformation and fitting within Collaborative Drug Discovery (Collaborative Drug Discovery USA). Ki was derived from the geometric mean of the IC50 values using the Cheng-Prustoff transformation.
# [1] = target: T1, Full length wild-type cereblon CRBN (Homo sapiens, UniProt Q96SW2); assay: Fluorescence polarization (FP) assay, cereblon binding
# T1 construct: Full length wild-type cereblon CRBN (80.0 nM, 10 μL) was incubated in assay buffer
# T1 sequence (Q96SW2 whole entry): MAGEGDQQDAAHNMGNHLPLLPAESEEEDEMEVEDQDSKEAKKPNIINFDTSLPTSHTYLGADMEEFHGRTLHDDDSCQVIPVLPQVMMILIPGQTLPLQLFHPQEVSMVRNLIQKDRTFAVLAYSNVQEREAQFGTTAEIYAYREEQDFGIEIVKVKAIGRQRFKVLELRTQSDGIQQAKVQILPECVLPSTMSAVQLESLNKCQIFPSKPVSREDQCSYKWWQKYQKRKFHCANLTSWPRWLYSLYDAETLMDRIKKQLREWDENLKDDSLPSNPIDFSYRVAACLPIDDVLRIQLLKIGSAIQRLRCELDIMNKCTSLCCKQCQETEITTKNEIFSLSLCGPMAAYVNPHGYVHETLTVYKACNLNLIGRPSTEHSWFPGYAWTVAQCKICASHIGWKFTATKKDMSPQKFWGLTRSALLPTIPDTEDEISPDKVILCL
# From the text: Compound activity was monitored in a fluorescence polarization (FP) homogeneous assay using 1-[5-({2-[2-(2-{[2-(2,6-dioxopiperidin-3-yl)-1,3-dioxo-2,3-dihydro-1H-isoindol-4-yl]oxy}acetamido)ethoxy]ethyl}carbamoyl)pentyl]-3,3-dimethyl-2-[(1E,3E)-5-[(2E)-1,3,3-trimethyl-5-sulfo-2,3-dihydro-1H-indol-2-ylidene]penta-1,3-dien-1-yl]-3H-indol-1-ium-5-sulfonate as a fluorescent probe. Unless otherwise stated, all reagents were purchased from Sigma Aldrich. […] Full length wild-type cereblon CRBN (80.0 nM, 10 μL) was incubated in assay buffer containing 20 mM HEPES (pH 8.0), […], 0.5 mM TCEP and 0.05% Tween 20 in the presence or absence of compound (300 nL). Inhibitors were stored as 10 mM DMSO stocks in an inert environment (low humidity, dark, low oxygen, room temperature) using the Storage Pod System. […] Following incubation at room temperature for 30 min, the assay was initiated by dispensing the probe to a final concentration of […] (2.5 nL of a 20 μM stock) using the Echo E5XX. […] The FP signal was subsequently normalized to the no-compound control (i.e., DMSO). Analysis and IC50 values were derived using Dotmatics (Dotmatics UK) software.
# [2] = read-out: HTRF Class (Cereblon binding, HTRF IC50)
# [3] = bounds stated in the text lists b2059-b2061, read-out: IC50 value
# [4] = cereblon binding, class code, read-out: rFP IC50
# Sequence of CRBN-DDB1 (Q96SW2 whole entry): as above
# Sequence of CRBN-DDB1 (Q16531 whole entry partner): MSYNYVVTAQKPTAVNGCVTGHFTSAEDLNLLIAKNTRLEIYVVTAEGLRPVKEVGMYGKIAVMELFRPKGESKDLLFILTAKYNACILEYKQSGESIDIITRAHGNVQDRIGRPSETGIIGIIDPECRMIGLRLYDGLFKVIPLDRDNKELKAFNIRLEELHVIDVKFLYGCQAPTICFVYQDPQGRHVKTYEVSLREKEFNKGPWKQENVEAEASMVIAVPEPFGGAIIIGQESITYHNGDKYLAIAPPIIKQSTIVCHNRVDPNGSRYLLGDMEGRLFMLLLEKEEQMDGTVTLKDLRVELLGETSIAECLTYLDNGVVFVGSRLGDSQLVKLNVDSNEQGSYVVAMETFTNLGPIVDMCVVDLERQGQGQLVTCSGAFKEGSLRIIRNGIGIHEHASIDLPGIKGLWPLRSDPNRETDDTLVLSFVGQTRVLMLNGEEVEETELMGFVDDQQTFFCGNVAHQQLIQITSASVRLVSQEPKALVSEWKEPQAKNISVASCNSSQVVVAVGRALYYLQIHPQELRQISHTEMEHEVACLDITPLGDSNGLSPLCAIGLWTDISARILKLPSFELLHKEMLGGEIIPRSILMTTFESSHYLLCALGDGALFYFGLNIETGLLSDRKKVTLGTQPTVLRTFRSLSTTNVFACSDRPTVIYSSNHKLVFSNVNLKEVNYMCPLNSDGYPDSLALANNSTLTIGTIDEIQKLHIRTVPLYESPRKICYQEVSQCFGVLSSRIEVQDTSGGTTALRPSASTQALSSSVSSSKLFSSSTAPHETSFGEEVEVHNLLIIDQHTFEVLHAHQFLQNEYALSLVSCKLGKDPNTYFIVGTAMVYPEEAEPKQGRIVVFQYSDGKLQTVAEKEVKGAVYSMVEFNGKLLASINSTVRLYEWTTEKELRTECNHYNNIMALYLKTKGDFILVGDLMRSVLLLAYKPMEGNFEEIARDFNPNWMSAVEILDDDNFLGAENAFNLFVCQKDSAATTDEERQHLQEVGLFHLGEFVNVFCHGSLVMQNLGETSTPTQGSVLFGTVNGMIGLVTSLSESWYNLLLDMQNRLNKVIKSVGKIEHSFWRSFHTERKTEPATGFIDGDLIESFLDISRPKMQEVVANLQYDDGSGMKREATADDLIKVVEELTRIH
smiles,measurement,setting,value
"CCCOc1cc(NC(=O)OCc2ccc3c(c2)C(=O)N(C2CCC(=O)NC2=O)C3)c(F)cc1C (stereo not shown) [Compound 231, (2-(2,6-dioxopiperidin-3-yl)-3-oxoisoindolin-5-yl)methyl (2-fluoro-4-methyl-5-propoxyphenyl)carbamate]",IC50,CRBN-DDB1; [2],< 100 nM
"O=C1CCC(N2Cc3ccc(COC(=O)Nc4cc(OC(F)F)c(F)cn4)cc3C2=O)C(=O)N1 (stereo not shown) [Compound 227, (2-(2,6-dioxopiperidin-3-yl)-3-oxoisoindolin-5-yl)methyl (4-(difluoromethoxy)-5-fluoropyridin-2-yl)carbamate]",IC50,CRBN-DDB1; [2],100 to 1000 nM
"O=C1CCC(N2Cc3ccc(COC(=O)Nc4ccc(F)c(OC(F)F)c4F)cc3C2=O)C(=O)N1 (stereo not shown) [Compound 191, (2-(2,6-dioxopiperidin-3-yl)-3-oxoisoindolin-5-yl)methyl (3-(difluoromethoxy)-2,4-difluorophenyl) carbamate]",IC50,CRBN-DDB1; [2],100 to 1000 nM
"CCCOc1ccc(F)c(NC(=O)OCc2ccc3c(c2)C(=O)N(C2CCC(=O)NC2=O)C3)c1 (stereo not shown) [Compound 226, (2-(2,6-dioxopiperidin-3-yl)-3-oxoisoindolin-5-yl)methyl (2-fluoro-5-propoxyphenyl)carbamate]",IC50,CRBN-DDB1; [2],100 to 1000 nM
"CC(C)(C)c1cccc(NC(=O)OCc2ccc3c(c2)C(=O)N(C2CCC(=O)NC2=O)C3)n1 (stereo not shown) [Compound 170, (2-(2,6-dioxopiperidin-3-yl)-3-oxoisoindolin-5-yl)methyl (6-(tert-butyl)pyridin-2-yl)carbamate]",IC50,CRBN-DDB1; [2],100 to 1000 nM
O=C1CCC(N2Cc3ccc(COC(=O)Nc4cc(Cl)cc5c4OCC5)cc3C2=O)C(=O)N1 (stereo not shown) [Compound 189],IC50,CRBN-DDB1,< 100 nM
"Cc1cc(NC(=O)OCc2ccc3c(c2)C(=O)N(C2CCC(=O)NC2=O)C3)ncc1N1CCCC1 (stereo not shown) [Compound 194, (2-(2,6-dioxopiperidin-3-yl)-3-oxoisoindolin-5-yl)methyl (4-methyl-5-(pyrrolidin-1-yl)pyridin-2-yl) carbamate]",IC50,CRBN-DDB1; [2],100 to 1000 nM
Cc1cc2c(c(NC(=O)OCc3ccc4c(c3)C(=O)N(C3CCC(=O)NC3=O)C4)c1)OCC2 (stereo not shown) [Compound 182],IC50,CRBN-DDB1,100 to 1000 nM
"Cc1cc(F)c(NC(=O)OCc2ccc3c(c2)C(=O)N(C2CCC(=O)NC2=O)C3)c(F)c1Cl (stereo not shown) [Compound 211, (2-(2,6-dioxopiperidin-3-yl)-3-oxoisoindolin-5-yl)methyl (3-chloro-2,6-difluoro-4-methylphenyl)carbamate]",IC50,CRBN-DDB1; [2],< 100 nM
CC(F)(F)c1ccc(F)c(NC(=O)OCc2ccc3c(c2)C(=O)N(C2CCC(=O)NC2=O)C3)c1 (stereo not shown) [Compound 234],IC50,CRBN-DDB1,< 100 nM
"CC(C)(C)[C@H]1C[C@@H](NC(=O)OCc2ccc3c(c2)C(=O)N(C2CCC(=O)NC2=O)C3)C1 (stereo partly drawn) [Compound 184, cis-(2-(2,6-dioxopiperidin-3-yl)-3-oxoisoindolin-5-yl)methyl ((1s,3s)-3-(tert-butyl)cyclobutyl)carbamate]",IC50,CRBN-DDB1; [2],100 to 1000 nM
C[C@@H]1CCCN1c1ccc(NC(=O)OCc2ccc3c(c2)C(=O)N(C2CCC(=O)NC2=O)C3)nc1 (stereo partly shown) [Compound 192],IC50,CRBN-DDB1,< 100 nM
"Cc1cc(F)c(NC(=O)OCc2ccc3c(c2)C(=O)N(C2CCC(=O)NC2=O)C3)cc1OC(C)C (stereo not shown) [Compound 230, (2-(2,6-dioxopiperidin-3-yl)-3-oxoisoindolin-5-yl)methyl (2-fluoro-5-isopropoxy-4-methylphenyl)carbamate]",IC50,CRBN-DDB1; [2],< 100 nM
"O=C1CCC(N2Cc3ccc(COC(=O)Nc4ccc(C5CCC5)cc4F)cc3C2=O)C(=O)N1 (stereo not shown) [Compound 164, (2-(2,6-dioxopiperidin-3-yl)-3-oxoisoindolin-5-yl)methyl (4-cyclobutyl-2-fluorophenyl)carbamate]",IC50,CRBN-DDB1; [2],100 to 1000 nM
Cc1cc(NC(=O)OCc2ccc3c(c2)C(=O)N(C2CCC(=O)NC2=O)C3)cc(C#N)c1C (stereo not shown) [Compound 186],IC50,CRBN-DDB1,100 to 1000 nM
"Cc1cc(F)c(NC(=O)OCc2ccc3c(c2)C(=O)N(C2CCC(=O)NC2=O)C3)cc1OC(F)F (stereo not shown) [Compound 201, (2-(2,6-dioxopiperidin-3-yl)-3-oxoisoindolin-5-yl) methyl (5-(difluoromethoxy)-2-fluoro-4-methylphenyl)carbamate]",IC50,CRBN-DDB1; [2],100 to 1000 nM
"CC(C)(O)c1ccc(NC(=O)OCc2ccc3c(c2)C(=O)N(C2CCC(=O)NC2=O)C3)cc1 (stereo not shown) [Compound 195, (2-(2,6-dioxopiperidin-3-yl)-3-oxoisoindolin-5-yl)methyl (4-(2-hydroxypropan-2-yl)phenyl)carbamate]",IC50,CRBN-DDB1; [2],100 to 1000 nM
"CC(C)c1cccc(NC(=O)OCc2ccc3c(c2)C(=O)N(C2CCC(=O)NC2=O)C3)c1 (stereo not shown) [Compound 217, (2-(2,6-dioxopiperidin-3-yl)-3-oxoisoindolin-5-yl)methyl (3-isopropylphenyl)carbamate]",IC50,CRBN-DDB1; [2],100 to 1000 nM
"COC(=O)C12CC(NC(=O)OCc3ccc4c(c3)C(=O)N(C3CCC(=O)NC3=O)C4)(C1)C2 (stereo not shown) [Compound 203, methyl 3-((((2-(2,6-dioxopiperidin-3-yl)-3-oxoisoindolin-5-yl)methoxy)carbonyl)amino)bicyclo[1.1.1]pentane-1-carboxylate]",IC50,CRBN-DDB1; [2],100 to 1000 nM
"O=C1CCC(N2Cc3ccc(COC(=O)Nc4cc(Cl)ccc4F)cc3C2=O)C(=O)N1 (stereo not shown) [Compound 163, (2-(2,6-dioxopiperidin-3-yl)-3-oxoisoindolin-5-yl)methyl (5-chloro-2-fluorophenyl)carbamate]",IC50,CRBN-DDB1; [2],100 to 1000 nM
"O=C1CCC(N2Cc3ccc(COC(=O)Nc4cc(OC(F)(F)F)c(F)cc4F)cc3C2=O)C(=O)N1 (stereo not shown) [Compound 200, (2-(2,6-dioxopiperidin-3-yl)-3-oxoisoindolin-5-yl)methyl (2,4-difluoro-5-(trifluoromethoxy)phenyl)carbamate]",IC50,CRBN-DDB1; [2],100 to 1000 nM
"O=C1CCC(N2Cc3ccc(COC(=O)Nc4cccc(C5CC5)c4)cc3C2=O)C(=O)N1 (stereo not shown) [Compound 216, (2-(2,6-dioxopiperidin-3-yl)-3-oxoisoindolin-5-yl)methyl (3-cyclopropylphenyl)carbamate]",IC50,CRBN-DDB1; [2],100 to 1000 nM
O=C1CCC(N2Cc3ccc(COC(=O)NC4CN(c5ccccc5)C4)cc3C2=O)C(=O)N1 (stereo not shown) [Compound 167],IC50,CRBN-DDB1,< 100 nM
"Cc1cc(F)c(NC(=O)OCc2ccc3c(c2)C(=O)N(C2CCC(=O)NC2=O)C3)c(F)c1 (stereo not shown) [Compound 166, (2-(2,6-dioxopiperidin-3-yl)-3-oxoisoindolin-5-yl)methyl (2,6-difluoro-4-methylphenyl)carbamate]",IC50,CRBN-DDB1; [2],< 100 nM
"O=C1CCC(N2Cc3ccc(COC(=O)NC45CC(C4)C5)cc3C2=O)C(=O)N1 (stereo not shown) [Compound 193, (2-(2,6-dioxopiperidin-3-yl)-3-oxoisoindolin-5-yl)methyl bicyclo[1.1.1]pentan-1-ylcarbamate]",IC50,CRBN-DDB1; [2],100 to 1000 nM
O=C1CCC(N2Cc3ccc(COC(=O)Nc4cc(CN5CC6CC5CO6)cc(OC(F)F)c4)cc3C2=O)C(=O)N1 (stereo not shown) [Compound 100],IC50,[1]; [3],< 1700 nM
same,IC50,[1]; [4],500 to 1100 nM
O=C1CCC(N2Cc3ccc(COC(=O)Nc4ccc5c(c4)OC(F)(F)O5)cc3C2=O)C(=O)N1 (stereo not shown) [Compound 79],IC50,[1]; [3],< 1700 nM
same,IC50,[1]; [4],1100 to 1700 nM
"Cc1cc(Cl)cc(NC(=O)OCc2ccc3c(c2)C(=O)N(C2CCC(=O)NC2=O)C3)c1 (stereo not shown) [Compound 144, (2-(2,6-dioxopiperidin-3-yl)-3-oxoisoindolin-5-yl)methyl (3-chloro-5-methylphenyl)carbamate]",IC50,[1]; [3],< 1700 nM
same,IC50,[1]; [4],1100 to 1700 nM
"O=C1CCC(N2Cc3ccc(COC(=O)Nc4cc(OC(F)(F)F)ccc4F)cc3C2=O)C(=O)N1 (stereo not shown) [Compound 145, (2-(2,6-dioxopiperidin-3-yl)-3-oxoisoindolin-5-yl)methyl(2-fluoro-5-(trifluoromethoxy)phenyl)carbamate]",IC50,[1]; IC50 value,< 1100 nM
same,IC50,[1]; rFP IC50 [nM],500 to 1100 nM
"O=C1CCC(N2Cc3ccc(COC(=O)NC45CC(c6ccccc6)(C4)C5)cc3C2=O)C(=O)N1 (stereo not shown) [Compound 126, (2-(2,6-dioxopiperidin-3-yl)-3-oxoisoindolin-5-yl)methyl (3-phenylbicyclo[1.1.1]pentan-1-yl carbamate]",IC50,[1]; [3],< 1100 nM
Cc1cc(Cl)c(NC(=O)OCc2ccc3c(c2)C(=O)N(C2CCC(=O)NC2=O)C3)cc1Cl (stereo not shown) [Compound 119],IC50,"[1]; IC50 value, bounds stated in the text lists b2059-b2061",< 1100 nM
same,IC50,"[1]; rFP IC50 [nM], cereblon binding, class code",500 to 1100 nM
O=C1CCC(N2Cc3ccc(COC(=O)Nc4ccc5c(c4)CCCO5)cc3C2=O)C(=O)N1 (stereo not shown) [Compound 67],IC50,[1]; [3],< 1700 nM
same,IC50,[1]; [4],500 to 1100 nM
O=C1CCC(N2Cc3ccc(COC(=O)Nc4cnc5c(c4)CCC5)cc3C2=O)C(=O)N1 (stereo not shown) [Compound 53],IC50,[1]; [3],< 1700 nM
same,IC50,[1]; [4],500 to 1100 nM

# Source: US20230348418A1, “ISOINDOLINONE COMPOUNDS” (Monte Rosa Therapeutics, Inc., priority 2021, published 2023)
